Read-outs that look alike come from different tables or passages of the source.
Assays:
[1] = test system: ID8 murine ovarian cancer cells; assay: cells; conditions: AMD3100 10 μM alone, 72 hours
Procedure: (§1) Drug Titrations: TAXOL was titered to determine the concentrations used in combination with AMD3100. Cells were cultured in 96-well black assay plates with optically clear bottoms (500 and 2500 cells per well were tested), including a standard curve plate. ID8 cells were then exposed to increasing concentrations of paclitaxel (1, 0.5, 0.15, 0.05, 0.015, and 0.005 μM), and TOV cells were exposed to 15, 5, and 1 nM Taxol for 48 or 96 hr. Proliferation was measured by measuring the amount of dsDNA using CyQuant reagent and read on a Perkin Elmer Envision 2103. AMD3100 (50, 25, 10, 5, 2.5, and 1 μM) was titered in the same manner. Each condition was done in triplicate. Drugs were not replenished during any of the experiments. Data was analyzed in Prism 7.
(§2) Simultaneous Delivery of Small Molecules and Chemotherapy: To determine the effect of AMD3100 alone or in combination with TAXOL, cell proliferation was measured by seeding 2500 TOV cells and 500 ID8 cell per well in a clear bottom 96-well black assay plates. AMD3100 (final concentrations: 10 μM for ID8 and 2.5 μM for TOV) and Paclitaxel (final concentrations: 15 and 5 nM for ID8 cells and 5 and 1 nM for TOV cells) were mixed with DMEM. 100 μL of the mixture was added to the cells. Each condition was done in triplicate. Plates were incubated at 37° C. with 5% CO2 for 72 hr (ID8) and 96 hr (TOV-112D). Standard curve plates were washed the same day the experiment was done. Plates were stored at −80° C. after washing and proliferation rate was measured then by CyQuant assay.

CXCR4 = CXCR4 (Homo sapiens, UniProt P61073); conditions: TOV-112D cells; for CXCR4 reduced by: AMD3100 5 μM, normalized
Procedure: (§3) CXCR4, CXCR7, and CXCL12 expression in ovarian cancer cells: ID8 or TOV-112D cells were plated at 750,000 cells/well in 6-well plates. Conditions were WT, WT+AMD3100 (10 μM for ID8/5 μM for TOV-112D, MedChemExpress HY-50912 and AbCam ab1207180) 16 hrs, and WT+AMD3100 4 hrs. 2× drug stocks were made in complete DMEM, final volume per well was 2 mL. GolgiPlug (BD Pharmingen) was added to all wells 3 hrs prior to harvesting according to manufacturer's protocol. CXCL12, CXCR4, and CXCR7 expression was measured by Flow Cytometry. Antibodies: anti-h/mCXCL12/SDF-1 APC (IC350A, RandD Systems), anti-mCXCR4/CD184 PE (551966, BD Bioscience), anti-hCXCR4/CD184 PE (306506, BioLegend), anti-h/mCXCR7 PE-Cy7 (331115, BioLegend).
(§4) Flow Cytometry: Cells were harvested using enzyme free dissociation buffer (Thermo Fisher Scientific 13151014) and counted using Trypan Blue viability dye (Corning). Equal numbers of cells were labeled with antibody for surface markers. Thereafter cells were stained for viability and where needed with secondary antibody. […] All incubation steps were performed at 4° C. on a rocker in the dark. Cells were washed 2× before analysis in cell staining buffer consisting of PBS containing 0.5% BSA, 0.02% Sodium Azide, and 2 mM EDTA. Analysis of samples in duplicate was done with a BD Fortessa collecting a minimum of 10,000 events per sample and using FlowJo software.

CXCR7 [2] = target: CXCR7 (Homo sapiens, UniProt P25106); conditions: TOV-112D cells
Procedure: as §3, §4

CXCL12 = conditions: for CXCL12 expression reduced by: 4 or 18 hours, normalized; for overall expression of CXCL12, significance of change: AMD3100 for either 4 or 18 hours
Procedure: as §3, §4

CXCR7 [3] = target: CXCR7 (Mus musculus, UniProt P56485); conditions: ID8 cells
Procedure: as §3, §4

ID8-Luc cells = conditions: C57/B6 mice, 1 mg/kg IP every 72 hours (subtherapeutic)
Procedure: Six- to eight-week old C57/B6 mice were injected with 5e6 ID8-Luc cells. The presence of the tumor was confirmed by luciferase imaging. The tumor bearing mice were treated with 1 mg/kg AMD-3100 by intraperitoneal (IP) injection every 72 hours or with TAXOL® (10 mg/ml).
Six- to eight-week old C57/B16 mice were injected with 5e6 ID8-Luc cells. The presence of the tumor was confirmed by luciferase imaging. The tumor bearing mice were treated with 1 mg/kg AMD-3100 by IP injection every 72 hours. In the combination treatment, the AMD3100 (1 mg/kg) and ruxolitinib (30 mg/kg) were administered concurrently but not simultaneously (i.e., administration was staggered).

[4] = test system: TOV-112D human ovarian cancer cells; assay: cells; conditions: TOV-112D cells, AMD3100 2.5 μM alone
Procedure: as §1
as §2, with “Plates were incubated at 37° C. with 5% CO2 for 72 hr (ID8) and 96 hr (TOV-112D).” left out

ID8 cells = assay: Soft-agar colony formation, ID8; assay type: cell-based, murine
Procedure: ID8 and TOV Colony Formation in The Presence of Small Molecules and/or Chemotherapy: Bottom Layer Hard Agar: 2×DMEM and 0.8% agar stock was prepared and adjusted to 42° C. in a water bath for 30 min. The agar and 2×DMEM were mixed (1:2). 500 μL of the mixture was then added to each well of a 24 well plate, and the plate was rocked to distribute evenly and allowed to solidify at room temperature in a tissue culture hood. Upper Layer Soft Agar: 0.6% agar stock was prepared adjusted to 42° C. in a water bath for 30 min. During this time, ID8 cells were trypsinized, and 40,000 cells per mL suspension in 1×DMEM was made. Cell suspensions were then mixed with soft agar stock (1:2) and 500 μL of the mixture was then added to each well. Each condition was in triplicate.
Drug-DMEM stocks were made to achieve the proper concentrations in 1.1 mL, the total volume of each well: AMD3100 (10 μM and 1 μM for ID8 cells, 5 μM and 2.5 μM for TOV cells) and TAXOL (0.015 μM and 0.005 μM). 100 μL of each drug was added to the relative wells in triplicate. Plates were then incubated in a humidified incubator with […] for 20-30 days. At the end of the experiment, each well was stained with 0.005% crystal violet in 15% ethanol (140 μL per well) and plates were incubated again for several hours then photos were taken using a microscope. ID8 Colonies equal or bigger […] and TOV colonies equal or bigger than […] were counted using Image J software.

[5] = AMD3100 for either 4 or 18 hours

Chain of CXCR4 (P61073 whole entry): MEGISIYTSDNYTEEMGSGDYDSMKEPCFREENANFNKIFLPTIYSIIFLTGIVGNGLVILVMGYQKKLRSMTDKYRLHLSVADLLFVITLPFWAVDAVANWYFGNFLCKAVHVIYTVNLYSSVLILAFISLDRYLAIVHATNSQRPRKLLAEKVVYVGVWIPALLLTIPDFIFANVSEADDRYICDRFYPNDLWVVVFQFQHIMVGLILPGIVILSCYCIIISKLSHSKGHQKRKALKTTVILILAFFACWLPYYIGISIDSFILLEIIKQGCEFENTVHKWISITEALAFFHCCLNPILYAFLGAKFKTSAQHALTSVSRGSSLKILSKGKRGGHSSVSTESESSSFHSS
Chain of CXCR7 (Homo sapiens, UniProt P25106) (P25106 whole entry): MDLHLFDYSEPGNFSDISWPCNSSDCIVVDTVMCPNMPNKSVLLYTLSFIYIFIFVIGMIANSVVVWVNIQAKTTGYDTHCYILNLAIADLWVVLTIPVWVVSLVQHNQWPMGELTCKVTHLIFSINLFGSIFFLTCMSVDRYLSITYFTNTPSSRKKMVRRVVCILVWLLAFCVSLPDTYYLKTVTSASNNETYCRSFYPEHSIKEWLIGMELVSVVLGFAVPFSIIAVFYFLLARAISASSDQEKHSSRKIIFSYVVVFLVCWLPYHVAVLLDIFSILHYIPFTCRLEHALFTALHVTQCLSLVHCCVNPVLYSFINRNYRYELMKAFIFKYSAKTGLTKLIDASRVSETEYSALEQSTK
Chain of CXCR7 (Mus musculus, UniProt P56485) (P56485 whole entry): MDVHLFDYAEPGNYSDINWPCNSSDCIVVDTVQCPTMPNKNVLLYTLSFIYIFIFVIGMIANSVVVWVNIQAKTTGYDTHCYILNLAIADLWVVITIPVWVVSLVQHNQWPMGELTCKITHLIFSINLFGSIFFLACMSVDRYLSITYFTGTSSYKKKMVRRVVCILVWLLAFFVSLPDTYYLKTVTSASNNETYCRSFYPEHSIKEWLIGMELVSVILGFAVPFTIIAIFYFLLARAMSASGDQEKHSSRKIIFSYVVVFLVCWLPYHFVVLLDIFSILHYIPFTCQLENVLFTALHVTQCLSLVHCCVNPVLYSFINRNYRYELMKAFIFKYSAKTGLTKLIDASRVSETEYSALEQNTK

Plerixafor octahydrochioride [AMD3100]
ID8 cell growth inhibition [1]: did not significantly inhibit
CXCR4 reduced by (CXCR4; 4 hours): 13%
CXCR4 reduced by (CXCR4; 18 hours): 4%
surface expression of CXCR4, significance of change (CXCR4; [5]): did not significantly alter
CXCR7 expression (CXCR7 [2]; AMD3100 5 μM, 18 hours, normalized): returned to basal levels
CXCR7 expression increased by (CXCR7 [2]; AMD3100 5 μM, after 4 hours, normalized): 20%
surface expression of CXCR7, significance of change (CXCR7 [2]; [5]): did not significantly alter
CXCL12 expression reduced by (CXCL12; ID8 cells, AMD3100 10 μM): 9-10%
overall expression of CXCL12, significance of change (CXCL12; ID8 cells): did not significantly alter
CXCL12 expression reduced by (CXCL12; TOV-112D cells, AMD3100 5 μM): 5-7%
overall expression of CXCL12, significance of change (CXCL12; TOV-112D cells): did not significantly alter
CXCR7 expression increased by (CXCR7 [3]; AMD3100 10 μM, 4 or 18 hours, normalized): 6%-11
surface expression of CXCR7, significance of change (CXCR7 [3]; [5]): did not significantly alter
survival of the tumor bearing mice (ID8-Luc cells): extends the survival
limited cell growth by [4]: 24.5%
decreased colony formation by (ID8 cells; ID8, AMD3100 1 M (so in the source)): 16%
decreased colony formation by (ID8 cells; ID8, AMD3100 10 M (so in the source)): 44%

Reference: patent publication US20190133998A1, “TREATMENT OF TUMORS WITH INHIBITORS OF CXCL12 SIGNALING AND SUBT[…] OF CHEMOTHERAPEUTIC AGENTS” (THE GENERAL HOSPITAL CORPORATION, priority 2016, published 2019)
